{"source": "patent US5162361A", "about": "“Method of treating diseases associated with elevated levels of interleukin 1” (priority 1990, dated 1992)", "key": {"[1]": {"system": "Pulmonary alveolar macrophages", "experiment": "Phagocytosis by pulmonary alveolar macrophages (Fluoresbrite beads, flow cytometry)", "assay_type": "cell-based, rat", "procedure": "One ml aliquots were added to sterile teflon vials (Nalgene) along with pentamidine or dexamethasone (Sigma) as indicated, and incubated for 4 hours at 37° C., 5% CO2. Fluoresbrite carboxylate beads, 1.73 μm (Polysciences) were used to achieve a 100:1 bead to cell ratio and the suspension was incubated for 45 minutes at 37° C., 5% CO2 with gentle agitation. Cell suspensions were then layered over 3 mls. of RPMI/FCS+0.3% BSA, and cells pelleted at 150 xg for 10 minutes. Supernates were discarded and cells resuspended in 1 ml of RPMI/FCS for analysis via flow cytometry. The data presented above is the mean of the percentage of cells taking up one or more beads of triplicate cultures."}, "alveolar macrophage": {"system": "alveolar macrophage", "experiment": "Alveolar macrophage viability following 24 hour exposure", "assay_type": "cell-based", "conditions": "concentrations ≤10^-5 M; normal rat macrophages", "procedure": "Dose response studies were performed to determine the molar concentration at which pentamidine reduced viability in normal rat macrophages. […] This blockage was shown using an enzyme linked immunosorbant assay with specific antibody to IL-1β.\nAlveolar macrophage viability was assessed by incubating the cells in RPMI 1640 media with 10% fetal calf serum in the presence of pentamidine at the indicated concentrations. Twenty-four hours later the cells were analyzed for viability using ethidium bromide staining. A minimum of 10,000 cells were analyzed by flow cytometry on a FACSCAN analyzer.\nThese observations have been confirmed using microscopic analysis via trypan blue dye exclusion."}}, "data": [{"compound": "N=C(N)c1ccc(OCCCCCOc2ccc(C(=N)N)cc2)cc1", "note": "[Pentamidine, 1,5-bis(4-amidinophenoxy)pentane]", "values": [{"measurement": "Phagocytic Index", "setting": "[1]; Pentamidine 10^-5 M (control 32)", "result": 32, "unit": "%"}, {"measurement": "Phagocytic capacity of alveolar macrophages", "setting": "[1]; result in words", "result": "did not modulate the phagocytic capacity of alveolar macrophages"}, {"measurement": "Loss in cell viability", "setting": "alveolar macrophage", "result": "No significant loss in cell viability"}]}]}
